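A five-concentration, 48-hour dose response in 96-well plates underlies each endpoint, interpolated linearly between surrounding concentrations. GI50: concentration for 50% inhibition of growth. TGI: concentration producing complete growth inhibition.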
Tests used:
Assay in all cases: NCI anticancer screen, dose series, 48 h
DU-145 prostate = test system: DU-145 prostate
UO-31 renal = test system: UO-31 renal
TK-10 renal = test system: TK-10 renal
OVCAR-5 ovarian = test system: OVCAR-5 ovarian
MDA-MB-435 = test system: MDA-MB-435
U251 CNS = test system: U251 CNS
K-562 leukemia = test system: K-562 leukemia
LOX IMVI melanoma = test system: LOX IMVI melanoma
OVCAR-4 ovarian = test system: OVCAR-4 ovarian
KM12 colon = test system: KM12 colon
RXF 393 renal = test system: RXF 393 renal
SNB-19 CNS = test system: SNB-19 CNS
SF-539 CNS = test system: SF-539 CNS
COLO 205 colon = test system: COLO 205 colon
SF-295 CNS = test system: SF-295 CNS
A549 NSCLC = test system: A549 NSCLC
NCI-H460 lung = test system: NCI-H460 lung
HOP-92 NSCLC = test system: HOP-92 NSCLC
HS 578T breast = test system: HS 578T breast
OVCAR-8 ovarian = test system: OVCAR-8 ovarian
MOLT-4 leukemia = test system: MOLT-4 leukemia
SK-MEL-2 melanoma = test system: SK-MEL-2 melanoma
HT29 colon = test system: HT29 colon
M14 melanoma = test system: M14 melanoma
SK-MEL-5 melanoma = test system: SK-MEL-5 melanoma
NCI-H226 lung = test system: NCI-H226 lung
NCI/ADR-RES ovarian = test system: NCI/ADR-RES ovarian
NCI-H23 lung = test system: NCI-H23 lung
UACC-62 melanoma = test system: UACC-62 melanoma
NCI-H522 lung = test system: NCI-H522 lung
SF-268 CNS = test system: SF-268 CNS
EKVX NSCLC = test system: EKVX NSCLC
CCRF-CEM leukemia = test system: CCRF-CEM leukemia
MDA-MB-231 breast = test system: MDA-MB-231 breast
UACC-257 melanoma = test system: UACC-257 melanoma
BT-549 breast = test system: BT-549 breast
MALME-3M melanoma = test system: MALME-3M melanoma
ACHN renal = test system: ACHN renal
RPMI-8226 leukemia = test system: RPMI-8226 leukemia
HOP-62 NSCLC = test system: HOP-62 NSCLC
HCT-116 colon = test system: HCT-116 colon
HCT-15 colon = test system: HCT-15 colon
SK-MEL-28 melanoma = test system: SK-MEL-28 melanoma
SW-620 colon = test system: SW-620 colon
SK-OV-3 ovarian = test system: SK-OV-3 ovarian
IGROV1 ovarian = test system: IGROV1 ovarian
PC-3 prostate = test system: PC-3 prostate
786-0 renal = test system: 786-0 renal
CAKI-1 renal = test system: CAKI-1 renal
T-47D breast = test system: T-47D breast
SN12C renal = test system: SN12C renal
SNB-75 CNS = test system: SNB-75 CNS
MCF7 breast = test system: MCF7 breast
SR leukemia = test system: SR leukemia
HCC-2998 colon = test system: HCC-2998 colon
OVCAR-3 ovarian = test system: OVCAR-3 ovarian
HL-60(TB) leukemia = test system: HL-60(TB) leukemia

COC1[C@@H]2C[C@H]3C(C)(C)O[C@@](C/C=C(/C)C(=O)O)(C2=O)[C@]32Oc3c(CC=C(C)C)c4c(c(O)c3C(=O)[C@H]12)C=CC(C)(C)O4 (some centres undefined)
GI50 (DU-145 prostate): 13.2 µM | TGI (DU-145 prostate): 26.1 µM | GI50 (UO-31 renal): 6.73 µM | TGI (UO-31 renal): 21.3 µM | GI50 (TK-10 renal): 18.8 µM | TGI (TK-10 renal): 33.5 µM | GI50 (OVCAR-5 ovarian): 20.1 µM | TGI (OVCAR-5 ovarian): 41.7 µM | GI50 (MDA-MB-435): 11.6 µM | TGI (MDA-MB-435): 27.8 µM | GI50 (U251 CNS): 4.35 µM | TGI (U251 CNS): 16.1 µM | GI50 (K-562 leukemia): 3.92 µM | TGI (K-562 leukemia): 31.4 µM | GI50 (LOX IMVI melanoma): 2.15 µM | TGI (LOX IMVI melanoma): 5.31 µM | GI50 (OVCAR-4 ovarian): 12.1 µM | TGI (OVCAR-4 ovarian): 29.9 µM | GI50 (KM12 colon): 14.5 µM | TGI (KM12 colon): 31.1 µM | GI50 (RXF 393 renal): 4.54 µM | TGI (RXF 393 renal): 18.2 µM | GI50 (SNB-19 CNS): 15.6 µM | TGI (SNB-19 CNS): 30.7 µM | GI50 (SF-539 CNS): 14.3 µM | TGI (SF-539 CNS): 28.5 µM | GI50 (COLO 205 colon): 17.2 µM | TGI (COLO 205 colon): 40.7 µM | GI50 (SF-295 CNS): 15.3 µM | TGI (SF-295 CNS): 34.8 µM | GI50 (A549 NSCLC): 19.7 µM | TGI (A549 NSCLC): 49.9 µM | GI50 (NCI-H460 lung): 8.15 µM | TGI (NCI-H460 lung): 25.8 µM | GI50 (HOP-92 NSCLC): 10.1 µM | TGI (HOP-92 NSCLC): 25.9 µM | GI50 (HS 578T breast): 9.58 µM | TGI (HS 578T breast): 78 µM | GI50 (OVCAR-8 ovarian): 6.82 µM | TGI (OVCAR-8 ovarian): 29.5 µM | GI50 (MOLT-4 leukemia): 3.61 µM | TGI (MOLT-4 leukemia): 36.8 µM | GI50 (SK-MEL-2 melanoma): 19 µM | TGI (SK-MEL-2 melanoma): 42.1 µM | GI50 (HT29 colon): 10.2 µM | TGI (HT29 colon): 28.8 µM | GI50 (M14 melanoma): 6.57 µM | TGI (M14 melanoma): 24.4 µM | GI50 (SK-MEL-5 melanoma): 12.5 µM | TGI (SK-MEL-5 melanoma): 25.9 µM | GI50 (NCI-H226 lung): 18.9 µM | TGI (NCI-H226 lung): 44.8 µM | GI50 (NCI/ADR-RES ovarian): 15.2 µM | TGI (NCI/ADR-RES ovarian): > 100 µM | GI50 (NCI-H23 lung): 16.4 µM | TGI (NCI-H23 lung): 50.6 µM | GI50 (UACC-62 melanoma): 13.2 µM | TGI (UACC-62 melanoma): 29.4 µM | GI50 (NCI-H522 lung): 15.3 µM | TGI (NCI-H522 lung): 32.3 µM | GI50 (SF-268 CNS): 12.8 µM | TGI (SF-268 CNS): 31.7 µM | GI50 (EKVX NSCLC): 10.3 µM | TGI (EKVX NSCLC): 28.9 µM | GI50 (CCRF-CEM leukemia): 3.73 µM | TGI (CCRF-CEM leukemia): 53.1 µM | GI50 (MDA-MB-231 breast): 6.56 µM | TGI (MDA-MB-231 breast): 27.6 µM | GI50 (UACC-257 melanoma): 14.7 µM | TGI (UACC-257 melanoma): 35.8 µM | GI50 (BT-549 breast): 2.47 µM | TGI (BT-549 breast): 7.1 µM | GI50 (MALME-3M melanoma): 14.2 µM | TGI (MALME-3M melanoma): 29.5 µM | GI50 (ACHN renal): 4.91 µM | TGI (ACHN renal): 18.4 µM | GI50 (RPMI-8226 leukemia): 2.56 µM | TGI (RPMI-8226 leukemia): 8.1 µM | GI50 (HOP-62 NSCLC): 16.3 µM | TGI (HOP-62 NSCLC): 32.4 µM | GI50 (HCT-116 colon): 3.07 µM | TGI (HCT-116 colon): 9.71 µM | GI50 (HCT-15 colon): 2.97 µM | TGI (HCT-15 colon): 13.5 µM | GI50 (SK-MEL-28 melanoma): 11.9 µM | TGI (SK-MEL-28 melanoma): 26.6 µM | GI50 (SW-620 colon): 3.05 µM | TGI (SW-620 colon): 10.8 µM | GI50 (SK-OV-3 ovarian): 23.4 µM | TGI (SK-OV-3 ovarian): 53.4 µM | GI50 (IGROV1 ovarian): 3.27 µM | TGI (IGROV1 ovarian): 10.7 µM | GI50 (PC-3 prostate): 6.03 µM | TGI (PC-3 prostate): 22.2 µM | GI50 (786-0 renal): 2.49 µM | TGI (786-0 renal): 5.97 µM | GI50 (CAKI-1 renal): 16.5 µM | TGI (CAKI-1 renal): 33.1 µM | GI50 (T-47D breast): 3.14 µM | TGI (T-47D breast): 17.6 µM | GI50 (SN12C renal): 6.85 µM | TGI (SN12C renal): 29.7 µM | GI50 (SNB-75 CNS): 19.2 µM | TGI (SNB-75 CNS): 54.3 µM | GI50 (MCF7 breast): 3.22 µM | TGI (MCF7 breast): 19.1 µM | GI50 (SR leukemia): 2.43 µM | TGI (SR leukemia): > 100 µM | GI50 (HCC-2998 colon): 16.8 µM | TGI (HCC-2998 colon): 34.4 µM | GI50 (OVCAR-3 ovarian): 3.77 µM | TGI (OVCAR-3 ovarian): 14.9 µM | GI50 (HL-60(TB) leukemia): 1.53 µM | TGI (HL-60(TB) leukemia): 4.99 µM
